# Test results: patent publication US20120053197A1, “TRICYCLIC PYRIDINE DERIVATIVES, MEDICAMENTS CONTAINING SUCH COMPOUNDS, THEIR USE AND PROCESS FOR THEIR PREPARATION” (BOEHRINGER INGELHEIM INTERNATIONAL GMBH, priority 2010, published 2012)
# Biological target: T1, recombinant human CETP (Homo sapiens, UniProt P11597)
# T1 construct: made in house; host or cells: CHO cells (protein secreted into conditioned medium)
# T1 sequence (P11597 18-493): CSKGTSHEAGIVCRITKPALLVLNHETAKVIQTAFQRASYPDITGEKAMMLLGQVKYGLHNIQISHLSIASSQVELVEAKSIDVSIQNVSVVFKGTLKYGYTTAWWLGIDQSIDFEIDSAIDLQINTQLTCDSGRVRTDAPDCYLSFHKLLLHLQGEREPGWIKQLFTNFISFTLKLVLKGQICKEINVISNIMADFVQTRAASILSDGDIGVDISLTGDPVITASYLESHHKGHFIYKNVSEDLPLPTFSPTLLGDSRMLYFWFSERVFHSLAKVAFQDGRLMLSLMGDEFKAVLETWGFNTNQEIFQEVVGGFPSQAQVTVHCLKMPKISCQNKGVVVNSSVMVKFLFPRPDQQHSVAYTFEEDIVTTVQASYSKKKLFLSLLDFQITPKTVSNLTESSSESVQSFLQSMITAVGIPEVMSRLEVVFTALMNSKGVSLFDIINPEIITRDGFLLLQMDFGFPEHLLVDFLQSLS
# Assay: CETP in vitro fluorometric assay (Roar Biomedical), cholesterol ester transfer from HDL to LDL
# Type: biochemical
# Settings: recombinant human CETP from CHO cells; 3 hours at 37° C.; fluorescence ex 485 nm / em 535 nm; compound concentrations between 1 nM and 30 μM; read-out: IC50 values for inhibition of CETP
# Method: CETP inhibitory activity of compounds of the present invention can be determined in a fluorometric assay puchased from Roar Biomedical, Inc. (New York, N.Y., USA). […] Recombinant human CETP was partially purified from medium conditioned by CETP expressing CHO cells. In a 384 well format 2.5 μl of compound solution in DMSO was combined with 2 μl of donor solution, 2 μl of acceptor solution and 0.8 μl of recombinant human CETP solution in a total volume of 100 μl with assay buffer and incubated for 3 hours at 37° C. The fluorescence intensity was measured at excitation wavelength of 485 nm and emission wavelength of 535 nm. IC50 values are calculated from dose effect curves from compound concentrations between 1 nM and 30 μM.
row,IC50,Structure (SMILES)
1,4680 nM,"CC(C)c1nc2c(c3c1[C@H](c1ccc(C(F)(F)F)cc1)O[C@]31C=CCC1)[C@@H](O)CC(C)(C)C2 [1(2), (1R,3′S,9′S)-4′-isopropyl-7′,7′-dimethyl-3′-(4-(trifluoromethyl)phenyl)-6′,7′,8′,9′-tetrahydro-3′H-spiro[cyclopent[2]ene-1,1′-furo[3,4-c]quinolin]-9′-ol]"
2,37 nM,"CC1(C)Cc2nc(C3CCCC3)c3c(c2[C@@H](O)C1)C1(CCCC1)O[C@@H]3c1ccc(C(F)(F)F)cc1 [1(6), (3′R,9′S)-4′-cyclopentyl-7′,7′-dimethyl-3′-(4-(trifluoromethyl)phenyl)-6′,7′,8′,9′-tetrahydro-3′H-spiro[cyclopentane-1,1′-furo[3,4-c]quinolin]-9′-ol]"
3,77 nM,"CC(C)c1ccc([C@H]2OC3(CCCC3)c3c2c(C(C)C)nc2c3[C@@H](O)CC(C)(C)C2)cc1 [1(7), (3′R,9′S)-4′-isopropyl-3′-(4-isopropylphenyl)-7′,7′-dimethyl-6′,7′,8′,9′-tetrahydro-3′H-spiro[cyclopentane-1,1′-furo[3,4-c]quinolin]-9′-ol]"
4,856 nM,"CC(C)c1nc2c(c3c1[C@@H](c1ccc(F)cc1)OC31CCCC1)[C@@H](O)CC(C)(C)C2 [1(8), (3′R,9′S)-3′-(4-fluorophenyl)-4′-isopropyl-7′,7′-dimethyl-6′,7′,8′,9′-tetrahydro-3′H-spiro[cyclopentane-1,1′-furo[3,4-c]quinolin]-9′-ol]"
5,6890 nM,"CC1(C)Cc2nc(C3CCOCC3)c3c(c2[C@@H](O)C1)C1(CCCC1)O[C@H]3c1ccc(C(F)(F)F)cc1 [1(13), (3′S,9′S)-7′,7′-dimethyl-4′-(tetrahydro-2H-pyran-4-yl)-3′-(4-(trifluoromethyl)phenyl)-6′,7′,8′,9′-tetrahydro-3′H-spiro[cyclopentane-1,1′-furo[3,4-c]quinolin]-9′-ol]"
6,409 nM,"Cc1ccc([C@H]2OC3(CCCC3)c3c2c(C(C)C)nc2c3[C@@H](O)CC(C)(C)C2)cc1 [1(14), (3′R,9′S)-4′-isopropyl-7′,7′-dimethyl-3′-p-tolyl-6′,7′,8′,9′-tetrahydro-3′H-spiro[cyclopentane-1,1′-furo[3,4-c]quinolin]-9′-ol]"
7,131 nM,"CC(C)c1nc2c(c3c1[C@@H](c1ccc(OC(F)(F)F)cc1)OC31CCCC1)[C@@H](O)CC(C)(C)C2 [1(17), (3′R,9′S)-4′-isopropyl-7′,7′-dimethyl-3′-(4-(trifluoromethoxy)phenyl)-6′,7′,8′,9′-tetrahydro-3′H-spiro[cyclopentane-1,1′-furo[3,4-c]quinolin]-9′-ol]"
8,363 nM,"CC(C)c1nc2c(c3c1[C@@H](c1ccc(C(C)(C)C)cc1)OC3(C)C)[C@@H](O)CC(C)(C)C2 [1(18), (3R,9S)-3-(4-tert-butylphenyl)-4-isopropyl-1,1,7,7-tetramethyl-1,3,6,7,8,9-hexahydrofuro[3,4-c]quinolin-9-ol]"
9,2140 nM,"CC(C)c1nc2c(c3c1[C@H](c1ccc(C(C)(C)C#N)cc1)OC31CCCC1)[C@@H](O)CC(C)(C)C2 [1(23), 2-(4-((3′S,9′S)-9′-hydroxy-4′-isopropyl-7′,7′-dimethyl-6′,7′,8′,9′-tetrahydro-3′H-spiro[cyclopentane-1,1′-furo[3,4-c]quinoline]-3′-yl)phenyl)-2-methylpropanenitrile]"
10,772 nM,"CC(C)c1nc2c(c3c1[C@@H](c1cnc(C(C)(C)C)nc1)OC31CCCC1)[C@@H](O)CC(C)(C)C2 [1(25), (3′R,9′S)-3′-(2-tert-butylpyrimidin-5-yl)-4′-isopropyl-7′,7′-dimethyl-6′,7′,8′,9′-tetrahydro-3′H-spiro[cyclopentane-1,1′-furo[3,4-c]quinolin]-9′-ol]"

# Second part, the compound before the results:
row,Structure (SMILES),IC50
1,"CC(C)c1nc2c(c3c1[C@H](c1ccc(C(F)(F)F)cc1)OC31CCCC1)[C@@H](O)CC(C)(C)C2 [1(1), (3′S,9′S)-4′-isopropyl-7′,7′-dimethyl-3′-(4-(trifluoromethyl)phenyl)-6′,7′,8′,9′-tetrahydro-3′H-spiro[cyclopentane-1,1′-furo[3,4-c]quinolin]-9′-ol]",1430 nM
2,"CC(C)c1nc2c(c3c1[C@@H](c1ccc(C(F)(F)F)cc1)OC3(C)C)[C@@H](O)CC(C)(C)C2 [1(3), (3R,9S)-4-isopropyl-1,1,7,7-tetramethyl-3-(4-(trifluoromethyl)phenyl)-1,3,6,7,8,9-hexahydrofuro[3,4-c]quinolin-9-ol]",460 nM
3,"CC1(C)Cc2nc(C3CCOCC3)c3c(c2[C@@H](O)C1)C1(CCCC1)O[C@@H]3c1ccc(C(F)(F)F)cc1 [1(5), (3′R,9′S)-7′,7′-dimethyl-4′-(tetrahydro-2H-pyran-4-yl)-3′-(4-(trifluoromethyl)phenyl)-6′,7′,8′,9′-tetrahydro-3′H-spiro[cyclopentane-1,1′-furo[3,4-c]quinolin]-9′-ol]",42 nM
4,"CC(C)c1nc2c(c3c1[C@@H](c1ccc(Cl)cc1)OC31CCCC1)[C@@H](O)CC(C)(C)C2 [1(9), (3′R,9′S)-3′-(4-chlorophenyl)-4′-isopropyl-7′,7′-dimethyl-6′,7′,8′,9′-tetrahydro-3′H-spiro[cyclopentane-1,1′-furo[3,4-c]quinolin]-9′-ol]",148 nM
5,"CC1(C)Cc2nc(C3CCCC3)c3c(c2[C@@H](O)C1)C1(CCCC1)O[C@@H]3c1ccc(F)cc1 [1(10), (3′R,9′S)-4′-cyclopentyl-3′-(4-fluorophenyl)-7′,7′-dimethyl-6′,7′,8′,9′-tetrahydro-3′H-spiro[cyclopentane-1,1′-furo[3,4-c]quinolin]-9′-ol]",360 nM
6,"CC(C)c1nc2c(c3c1[C@@H](c1ccc(C(C)(C)C)cc1)OC31CCCC1)[C@@H](O)CC(C)(C)C2 [1(11), (3′R,9′S)-3′-(4-tert-butylphenyl)-4′-isopropyl-7′,7′-dimethyl-6′,7′,8′,9′-tetrahydro-3′H-spiro[cyclopentane-1,1′-furo[3,4-c]quinolin]-9′-ol]",36 nM
7,"CC(C)c1nc2c(c3c1[C@@H](c1ccc(C(F)(F)F)nc1)OC31CCCC1)[C@@H](O)CC(C)(C)C2 [1(12), (3′R,9′S)-4′-isopropyl-7′,7′-dimethyl-3′-(6-(trifluoromethyl)pyridin-3-yl)-6′,7′,8′,9′-tetrahydro-3′H-spiro[cyclopentane-1,1′-furo[3,4-c]quinolin]-9′-ol]",150 nM
8,"CC(C)c1nc2c(c3c1[C@@H](c1ccc(C(F)(F)F)cc1)OC31CCCC1)[C@@H](O)CC1(CCC1)C2 [1(15), (3′R,9′S)-4′-isopropyl-7′,7′-(propan-1,3-diyl)-3′-(4-(trifluoromethyl)phenyl)-6′,7′,8′,9′-tetrahydro-3′H-spiro[cyclopentane-1,1′-furo[3,4-c]quinolin]-9′-ol]",21 nM
9,"CC(C)c1nc2c(c3c1[C@@H](c1ccc(C(F)(F)F)c(F)c1)OC31CCCC1)[C@@H](O)CC(C)(C)C2 [1(16), (3′R,9′S)-3′-(3-fluoro-4-(trifluoromethyl)phenyl)-4′-isopropyl-7′,7′-dimethyl-6′,7′,8′,9′-tetrahydro-3′H-spiro[cyclopentane-1,1′-furo[3,4-c]quinolin]-9′-ol]",43 nM
10,"CC1(C)Cc2nc(C3CCCC3)c3c(c2[C@@H](O)C1)C(C)(C)O[C@@H]3c1ccc(C(C)(C)C)cc1 [1(19), (3R,9S)-3-(4-tert-butylphenyl)-4-cyclopentyl-1,1,7,7-tetramethyl-1,3,6,7,8,9-hexahydrofuro[3,4-c]quinolin-9-ol]",351 nM
11,"CC(C)c1nc2c(c3c1[C@@H](c1ccc(C#N)cc1)OC31CCCC1)[C@@H](O)CC(C)(C)C2 [1(20), 4-((3′R,9′S)-9′-hydroxy-4′-isopropyl-7′,7′-dimethyl-6′,7′,8′,9′-tetrahydro-3′H-spiro[cyclopentane-1,1′-furo[3,4-c]quinoline]-3′-yl)benzonitrile]",1080 nM
12,"CC(C)c1nc2c(c3c1[C@@H](c1ccc(C(F)(F)F)cn1)OC31CCCC1)[C@@H](O)CC(C)(C)C2 [1(21), (3′S,9′S)-4′-isopropyl-7′,7′-dimethyl-3′-(5-(trifluoromethyl)pyridin-2-yl)-6′,7′,8′,9′-tetrahydro-3′H-spiro[cyclopentane-1,1′-furo[3,4-c]quinolin]-9′-ol]",124 nM
13,"CC(C)c1nc2c(c3c1[C@@H](c1ccc(C(C)(C)C#N)cc1)OC31CCCC1)[C@@H](O)CC(C)(C)C2 [1(22), 2-(4-((3′R,9′S)-9′-hydroxy-4′-isopropyl-7′,7′-dimethyl-6′,7′,8′,9′-tetrahydro-3′H-spiro[cyclopentane-1,1′-furo[3,4-c]quinoline]-3′-yl)phenyl)-2-methylpropanenitrile]",47 nM
14,"CC(C)c1nc2c(c3c1[C@@H](c1ccc(C(F)(F)F)s1)OC31CCCC1)[C@@H](O)CC(C)(C)C2 [1(24), (3′S,9′S)-4′-isopropyl-7′,7′-dimethyl-3′-(5-(trifluoromethyl)thiophen-2-yl)-6′,7′,8′,9′-tetrahydro-3′H-spiro[cyclopentane-1,1′-furo[3,4-c]quinolin]-9′-ol]",286 nM
